Data: patent US11420960B2, “Use of 5-oxazolidine-2,4-dione C-glycoside derivatives as moisturizer for the skin” (L'OREAL, priority 2018, dated 2022)

System: isolated stratum corneum (SC)
Assay: Evaluation of the moisturizing potential on isolated stratum corneum by measurement with a Corneometer
Settings: for Mean DHCMiactive agent corr: 5% by weight in water/n-propanol (80/20), 5 μl/cm2 on SC, T4h vs T0h, 75% relative humidity, 25° C., relative percentage with carrier control 0% and glycerol 100%; for dielectric capacitance of the stratum corneum (SC): compounds at 5% by weight
Protocol: B): Evaluation of the Moisturizing Potential on Isolated Stratum Corneum by Measurement with a Corneometer
A test was performed to evaluate the moisturizing potential of the compounds of the invention formulated in an aqueous solution to an amount of 5% by weight relative to the total weight of the composition.
The technique makes it possible to measure the dielectric capacitance of the stratum corneum (SC), which depends on the mean dielectric permittivity value of the tissue. The dielectric permittivity varies greatly with the amount of water contained in the SC.
The SC samples are conditioned at 75% relative humidity and at 25° C. before/during the measurements and the treatment. The capacitance measurement is performed using a Corneometer™ (Courage & Khazaka, Germany).
The compound tested, compounds 1, 2 and 3 according to the invention or a moisturizing active agent such as glycerol (humectant positive control), is dissolved in a water/n-propanol mixture (80/20) and the solution is deposited onto the SC at a rate of 5 μl/cm^2 followed by air-drying for a total duration of 4 h.
A measurement is taken at T0h, before the treatment, and a measurement T4h is taken after total drying of the treatment.
The variation in the level of moisturization between T0h and T4h is calculated for each condition tested and compared to the references (carrier control and positive control) and to its T0h. The experiments are carried out on at least two different batches of SC and three samples of SC per condition tested.
The variation in the corneometer signal (HCM) after treatment is calculated for each SC sample: DHCMi=HCMi(T4h)−HCMi(T0h).
The results are then expressed as relative percentage in relation to the references, the carrier control and the glycerol positive control corresponding to a level of 0% and 100%, respectively.
Thus, for each experiment, the following are measured: • For the carrier control: DHCMicarrier=HCMicarrier(T4h)−HCMicarrier(T0h) • For the positive control: DHCMiglycerol=HCMiglycerol(T4h)−HCMiglycerol(T0h) • For the active agent: DHCMiactive agent=HCMiactive agent(T4h)−HCMiactive agent(T0h) • % DHCMiactive agent=(DHCMiactive agent−DHCMicarrier)/((DHCMiglycerol−DHCMicarrier) • As specified above, according to this mode of calculation: • % DHCMicarrier=0% • % DHCMiglycerol=100%
The moisturizing potential of an active agent is therefore determined as relative percentage in relation to the positive control.

SMILES | Mean DHCMiactive agent corr [%] | dielectric capacitance of the stratum corneum (SC) (in words) | dielectric capacitance of the stratum corneum (SC) in comparison with glycerol at the same concentration (in words, 5% by weight)
O=C1N=C(O)C(C2OC[C@@H](O)[C@H](O)[C@H]2O)O1 (some centres unmarked) [Compound 2] | 63 | high | –
CN1C(=O)OC(C2O[C@H](CO)[C@@H](O)[C@H](O)[C@H]2O)C1=O (some centres unmarked) [Compound 3] | 51 | high | –
O=C1N=C(O)C(C2O[C@H](CO)[C@@H](O)[C@H](O)[C@H]2O)O1 (some centres unmarked) [Compound 1] | 88 | high | of the same order
OCC(O)CO [Glycerol, glycerol, reference compound] | 100 | – | –
